Laboratory results taken from patent US20100035755A1, “METHOD OF CONTROLLING WEEDS IN A TURF GRASS BY USING SULFONYLUREA COMPOUNDS” (Moghu Research Center Ltd., priority 2008, published 2010).

How the values were obtained:
[1] = tested on: Kentucky bluegrass; test: Turf grass selectivity, greenhouse pot test; type: in vivo, Poa pratensis
Excerpt: (§1) Turf mats of Zoysia grass, bentgrass, Kentucky bluegrass, or perennial rye grass known as cool season turfgrass or western grass were purchased and cut into a piece having 10 cm×20 cm size. Then, each piece was transplanted in a rectangular plastic pot (surface area of 300 cm^2) in which sandy loam and mixed top soil (Boo-Nong Top Soil No. 3, for horticultural use) are filled in 1:1 ratio. After the transplantation, the grasses were cut once a week to maintain the blade height at 0.5-1.0 cm and cultivated for one month in a green house of which temperature was kept at 25˜30° C. for daytime and 15˜25° C. for nighttime, respectively. Then, the ‘test chemical’ of the above Examples 1 and 2 or ‘control chemical’ was applied thereto in an amount of 400, 200, 100, 50, 25, 12, 6, 3 g ai/ha. As a “control chemical”, pyrazolsulfuron ethyl wettable agent (manufactured by Dongbu Fine Chemicals; herein after, referred to as ‘control chemical No. 1’) and flazasulfuron (manufactured by Dongbu HiTek; herein after, referred to as ‘control chemical No. 2’), both sulfonylurea herbicides for a turf grass, were used. Application was carried out by using a track sprayer (R&D Sprayer, USA) equipped with Teejet 8002 nozzle (Spraying Systems Co., USA), and the application amount was adjusted to 2,000 L/ha, which is a typical application amount for a golf course in Korea. Application solution was prepared by diluting the “test chemical” or the “control chemical” with tap water. […] The test was repeated three times in a random arrangement and the results are given in average value of each test (see Table 2 below).

[2] = tested on: Digitaria sanguinalis; test: Weed spectrum, greenhouse pot test; type: in vivo; settings: two weeks after application
Excerpt: (§2) To a rectangular plastic pot (surface area of 300 cm^2) in which sandy loam and mixed top soil (Boo-Nong Top Soil No. 3, for horticultural use) are filled in 1:1 ratio, eight different kinds of weed seeds including Poa annua and Digitaria sanguinalis as poaceae weed, Cyperus amuricus as cyperaceae weeds and Trifolium repens, Kummerowia striata, fleabane, Veronica officinalis and Portulaca oleracea as broadleaf weeds were sewn (50 to 100 seeds per each weed). These weeds are representative examples of the weeds which typically thrive in a turf grass field.
(§3) The pot was kept in a greenhouse which was maintained at 25˜30° C. for daytime and 15˜25° C. for nighttime, respectively, and irrigation was carried out regularly. Fourteen days after seeding, when the turf grass and the weeds reached approximately at three-leaf stage, the weed seeds were again sewn in separate two pots or “Test chemical” and “Control chemical” were applied in the same manner as the method described above. In this regard, when plants were cultivated for two weeks and then the chemical application was carried out, it is designated as “post-emergence” treatment. On the other than, when the seeding was carried right before the chemical application, it is designated as “pre-emergence” treatment. Preparation of a chemical solution, application method, etc. are the same as above described for evaluation of turf grass selectivity. Two weeks after the chemical application, efficacy of the chemicals for each type of the weeds was evaluated (visual evaluation) based on 0 to 100 scale (i.e., 0 indicates no efficacy and 100 indicates complete weed control).

[3] = tested on: Kummerowia striata; test: Weed spectrum, greenhouse pot test; type: in vivo; settings: two weeks after application
Excerpt: as §2, §3

[4] = tested on: Poa annua; test: Weed spectrum, greenhouse pot test; type: in vivo; settings: two weeks after application
Excerpt: as §2, §3

[5] = tested on: Trifolium repens; test: Weed spectrum, greenhouse pot test; type: in vivo; settings: two weeks after application
Excerpt: as §2, §3

[6] = tested on: Zoysia japonica; test: Turf grass selectivity, greenhouse pot test; type: in vivo; settings: Zoysia japonica
Excerpt: as §1

[7] = tested on: Perennial rye grass; test: Turf grass selectivity, greenhouse pot test; type: in vivo
Excerpt: as §1

[8] = tested on: Dandelion; test: Weed spectrum, greenhouse pot test; type: in vivo; settings: two weeks after application

Cc1cc(C)nc(NC(=O)NS(=O)(=O)c2ccccc2C(O)C(C)F)n1 (stereo not shown) [Example 1]
phytotoxicity (visual assessment 0-10) ([1]; 3 g ai/ha, 2 weeks): 0
phytotoxicity (visual assessment 0-10) ([1]; 3 g ai/ha, 4 weeks): 0
phytotoxicity (visual assessment 0-10) ([1]; 6 g ai/ha, 2 weeks): 0
phytotoxicity (visual assessment 0-10) ([1]; 6 g ai/ha, 4 weeks): 0
phytotoxicity (visual assessment 0-10) ([1]; 12 g ai/ha, 2 weeks): 0
phytotoxicity (visual assessment 0-10) ([1]; 12 g ai/ha, 4 weeks): 0
phytotoxicity (visual assessment 0-10) ([1]; 25 g ai/ha, 2 weeks): 0
phytotoxicity (visual assessment 0-10) ([1]; 25 g ai/ha, 4 weeks): 0
phytotoxicity (visual assessment 0-10) ([1]; 50 g ai/ha, 2 weeks): 0
phytotoxicity (visual assessment 0-10) ([1]; 50 g ai/ha, 4 weeks): 0
phytotoxicity (visual assessment 0-10) ([1]; 100 g ai/ha, 2 weeks): 0
phytotoxicity (visual assessment 0-10) ([1]; 100 g ai/ha, 4 weeks): 0
phytotoxicity (visual assessment 0-10) ([1]; 200 g ai/ha, 2 weeks): 1
phytotoxicity (visual assessment 0-10) ([1]; 200 g ai/ha, 4 weeks): 0
phytotoxicity (visual assessment 0-10) ([1]; 400 g ai/ha, 2 weeks): 2
phytotoxicity (visual assessment 0-10) ([1]; 400 g ai/ha, 4 weeks): 1
efficacy (0-100 scale) ([2]; Post-emergence, 12 g ai/ha): 60
efficacy (0-100 scale) ([2]; Post-emergence, 25 g ai/ha): 70
efficacy (0-100 scale) ([2]; Post-emergence, 50 g ai/ha): 90
efficacy (0-100 scale) ([2]; Post-emergence, 100 g ai/ha): 100
efficacy (0-100 scale) ([2]; Pre-emergence, 12 g ai/ha): 60
efficacy (0-100 scale) ([2]; Pre-emergence, 25 g ai/ha): 85
efficacy (0-100 scale) ([2]; Pre-emergence, 50 g ai/ha): 100
efficacy (0-100 scale) ([2]; Pre-emergence, 100 g ai/ha): 100
efficacy (0-100 scale) ([3]; Post-emergence, 12 g ai/ha): 70
efficacy (0-100 scale) ([3]; Post-emergence, 25 g ai/ha): 70
efficacy (0-100 scale) ([3]; Post-emergence, 50 g ai/ha): 100
efficacy (0-100 scale) ([3]; Post-emergence, 100 g ai/ha): 100
efficacy (0-100 scale) ([3]; Pre-emergence, 12 g ai/ha): 70
efficacy (0-100 scale) ([3]; Pre-emergence, 25 g ai/ha): 90
efficacy (0-100 scale) ([3]; Pre-emergence, 50 g ai/ha): 90
efficacy (0-100 scale) ([3]; Pre-emergence, 100 g ai/ha): 100
efficacy (0-100 scale) ([4]; Post-emergence, 12 g ai/ha): 10
efficacy (0-100 scale) ([4]; Post-emergence, 25 g ai/ha): 30
efficacy (0-100 scale) ([4]; Post-emergence, 50 g ai/ha): 50
efficacy (0-100 scale) ([4]; Post-emergence, 100 g ai/ha): 70
efficacy (0-100 scale) ([4]; Pre-emergence, 12 g ai/ha): 50
efficacy (0-100 scale) ([4]; Pre-emergence, 25 g ai/ha): 60
efficacy (0-100 scale) ([4]; Pre-emergence, 50 g ai/ha): 70
efficacy (0-100 scale) ([4]; Pre-emergence, 100 g ai/ha): 80
efficacy (0-100 scale) ([5]; Post-emergence, 12 g ai/ha): 40
efficacy (0-100 scale) ([5]; Post-emergence, 25 g ai/ha): 50
efficacy (0-100 scale) ([5]; Post-emergence, 50 g ai/ha): 60
efficacy (0-100 scale) ([5]; Post-emergence, 100 g ai/ha): 60
efficacy (0-100 scale) ([5]; Pre-emergence, 12 g ai/ha): 30
efficacy (0-100 scale) ([5]; Pre-emergence, 25 g ai/ha): 50
efficacy (0-100 scale) ([5]; Pre-emergence, 50 g ai/ha): 70
efficacy (0-100 scale) ([5]; Pre-emergence, 100 g ai/ha): 70
phytotoxicity (visual assessment 0-10) ([6]; 3 g ai/ha, 2 weeks): 0
phytotoxicity (visual assessment 0-10) ([6]; 3 g ai/ha, 4 weeks): 0
phytotoxicity (visual assessment 0-10) ([6]; 6 g ai/ha, 2 weeks): 0
phytotoxicity (visual assessment 0-10) ([6]; 6 g ai/ha, 4 weeks): 0
phytotoxicity (visual assessment 0-10) ([6]; 12 g ai/ha, 2 weeks): 0
phytotoxicity (visual assessment 0-10) ([6]; 12 g ai/ha, 4 weeks): 0
phytotoxicity (visual assessment 0-10) ([6]; 25 g ai/ha, 2 weeks): 0
phytotoxicity (visual assessment 0-10) ([6]; 25 g ai/ha, 4 weeks): 0
phytotoxicity (visual assessment 0-10) ([6]; 50 g ai/ha, 2 weeks): 0
phytotoxicity (visual assessment 0-10) ([6]; 50 g ai/ha, 4 weeks): 0
phytotoxicity (visual assessment 0-10) ([6]; 100 g ai/ha, 2 weeks): 0
phytotoxicity (visual assessment 0-10) ([6]; 100 g ai/ha, 4 weeks): 0
phytotoxicity (visual assessment 0-10) ([6]; 200 g ai/ha, 2 weeks): 0
phytotoxicity (visual assessment 0-10) ([6]; 200 g ai/ha, 4 weeks): 0
phytotoxicity (visual assessment 0-10) ([6]; 400 g ai/ha, 2 weeks): 0
phytotoxicity (visual assessment 0-10) ([6]; 400 g ai/ha, 4 weeks): 0
phytotoxicity (visual assessment 0-10) ([7]; 3 g ai/ha, 2 weeks): 0
phytotoxicity (visual assessment 0-10) ([7]; 3 g ai/ha, 4 weeks): 0
phytotoxicity (visual assessment 0-10) ([7]; 6 g ai/ha, 2 weeks): 0
phytotoxicity (visual assessment 0-10) ([7]; 6 g ai/ha, 4 weeks): 0
phytotoxicity (visual assessment 0-10) ([7]; 12 g ai/ha, 2 weeks): 0
phytotoxicity (visual assessment 0-10) ([7]; 12 g ai/ha, 4 weeks): 0
phytotoxicity (visual assessment 0-10) ([7]; 25 g ai/ha, 2 weeks): 0
phytotoxicity (visual assessment 0-10) ([7]; 25 g ai/ha, 4 weeks): 0
phytotoxicity (visual assessment 0-10) ([7]; 50 g ai/ha, 2 weeks): 0
phytotoxicity (visual assessment 0-10) ([7]; 50 g ai/ha, 4 weeks): 0
phytotoxicity (visual assessment 0-10) ([7]; 100 g ai/ha, 2 weeks): 0
phytotoxicity (visual assessment 0-10) ([7]; 100 g ai/ha, 4 weeks): 0
phytotoxicity (visual assessment 0-10) ([7]; 200 g ai/ha, 2 weeks): 0
phytotoxicity (visual assessment 0-10) ([7]; 200 g ai/ha, 4 weeks): 0
phytotoxicity (visual assessment 0-10) ([7]; 400 g ai/ha, 2 weeks): 1
phytotoxicity (visual assessment 0-10) ([7]; 400 g ai/ha, 4 weeks): 0
efficacy (0-100 scale) ([8]; Post-emergence, 12 g ai/ha): 90
efficacy (0-100 scale) ([8]; Post-emergence, 25 g ai/ha): 90
efficacy (0-100 scale) ([8]; Post-emergence, 50 g ai/ha): 100
efficacy (0-100 scale) ([8]; Post-emergence, 100 g ai/ha): 100
efficacy (0-100 scale) ([8]; Pre-emergence, 12 g ai/ha): 90
efficacy (0-100 scale) ([8]; Pre-emergence, 25 g ai/ha): 90
efficacy (0-100 scale) ([8]; Pre-emergence, 50 g ai/ha): 100
efficacy (0-100 scale) ([8]; Pre-emergence, 100 g ai/ha): 100
